Measurements reported in PubChem BioAssay (NCI).
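In this assay, cells in 96-well plates receive the compound at five concentrations for 48 hours. Endpoints are linearly interpolated between the surrounding concentrations. GI50: concentration for 50% inhibition of growth. TGI denotes the concentration required for complete inhibition of growth.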

Tests used:
Assay in all cases: NCI tumour cell line growth inhibition, 48 h
A549 NSCLC = system: A549 NSCLC
CAKI-1 renal = system: CAKI-1 renal
HCC-2998 colon = system: HCC-2998 colon
HL-60(TB) leukemia = system: HL-60(TB) leukemia
OVCAR-5 ovarian = system: OVCAR-5 ovarian
RPMI-8226 leukemia = system: RPMI-8226 leukemia
RXF 393 renal = system: RXF 393 renal
SK-MEL-28 melanoma = system: SK-MEL-28 melanoma
SK-MEL-5 melanoma = system: SK-MEL-5 melanoma
TK-10 renal = system: TK-10 renal

SMILES | TGI (A549 NSCLC) [µM] | TGI (CAKI-1 renal) [µM] | TGI (HCC-2998 colon) [µM] | TGI (HL-60(TB) leukemia) [µM] | TGI (OVCAR-5 ovarian) [µM] | TGI (RPMI-8226 leukemia) [µM] | TGI (RXF 393 renal) [µM] | TGI (SK-MEL-28 melanoma) [µM] | TGI (SK-MEL-5 melanoma) [µM] | TGI (TK-10 renal) [µM] | GI50 (A549 NSCLC) [µM] | GI50 (CAKI-1 renal) [µM] | GI50 (HCC-2998 colon) [µM] | GI50 (HL-60(TB) leukemia) [µM] | GI50 (OVCAR-5 ovarian) [µM] | GI50 (RPMI-8226 leukemia) [µM] | GI50 (RXF 393 renal) [µM] | GI50 (SK-MEL-28 melanoma) [µM] | GI50 (SK-MEL-5 melanoma) [µM] | GI50 (TK-10 renal) [µM]
COC(=O)N/N=C(\C)C(CN(C)C)C(c1ccccc1)c1c(O)c2ccccc2oc1=O (stereo not given) | > 100 | > 100 | > 100 | > 100 | > 100 | > 100 | > 100 | > 100 | > 100 | > 100 | – | – | – | – | – | – | – | – | – | –
CCc1nc2cc(/C=C/C(=O)NO)ccc2c(=O)n1CCc1ccc(OC)cc1 | 15.1 | 10.7 | 62.1 | > 100 | 30 | 56.1 | 4.74 | 15.1 | 5.09 | 5.79 | 3.56 | 2.98 | 4.06 | 3.47 | 2.5 | 2.38 | 1.74 | 3.31 | 1.96 | 1.6
COc1ccc2nc3cccc([N+](=O)[O-])c3c(NCCNCCN(C)C)c2c1 | 0.518 | 0.616 | 0.115 | 0.352 | 0.467 | 0.106 | 0.122 | 3.09 | 0.13 | 1.09 | 0.0712 | 0.0797 | 0.0269 | 0.0449 | 0.0375 | 0.0208 | 0.0342 | 0.62 | 0.0325 | 0.194
CCOC(=O)C1=C(C(=O)OCC)C2(c3ccccc3)N(O1)c1ccccc1C2(C)C (stereo not given) | > 100 | > 100 | > 100 | 53 | > 100 | 57.3 | > 100 | > 100 | > 100 | > 100 | – | – | – | – | – | – | – | – | – | –
O=C(/C=C\n1cnc(-c2cc(C(F)(F)F)cc(C(F)(F)F)c2)n1)N1CC(F)(F)C1 | > 25 | 6.84 | 4.42 | > 17.1 | > 25 | 17.9 | 1.09 | 4.81 | 4.08 | 3.7 | 0.559 | 0.288 | 0.729 | 0.399 | 0.671 | 0.408 | 0.226 | 0.46 | 0.644 | 0.645
Cc1c(C)c2c(c(C)c1OCC(=O)O)CC[C@@](C)(CCC[C@@H](C)CCC[C@@H](C)CCCC(C)C)O2 | 107 | 151 | 224 | 156 | 155 | 214 | 137 | 129 | 122 | 154 | 24.4 | 76.7 | 102 | 77.2 | 86.3 | 56.3 | 61.6 | 62.6 | 58 | 85.6
C/C(CC(=O)Nc1ccc(NC(=O)C/C(C)=N\NC(N)=O)cc1)=N/NC(N)=O | > 100 | > 100 | > 100 | > 100 | > 100 | 55.5 | > 100 | > 100 | > 100 | > 100 | – | – | – | – | – | – | – | – | – | –
